Several values for one entry are separate records, joined by “and”; a condition that tells them apart may be missing. Equal entries are not always repeated. Activity calls are given as the source filed them.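 The calls were made as follows: active = compounds giving half or more protection of infected cells from virus-caused growth loss, again on retest; inactive = the rest.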
System: CEM cells HIV-1 protection, formazan growth assay
Assay: NCI AIDS Antiviral Assay
Settings: for IC50: measured here: growth of uninfected CEM cells
In short: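 Steps: treat uninfected and HIV-1-infected human CEM cells at five drug levels; quantify growth by soluble formazan; retest any compound reaching 50% protection; classify actives from the retest.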

| SMILES | EC50 | IC50 | outcome |
| --- | --- | --- | --- |
| CSC12c3cc(C)n(-c4ccccc4)c3CC(C)(C)CN1C(=O)C2Oc1ccccc1 (configuration not stated) | > 200 µM | 16.2 µM | – |
| CCOC(=O)C1=C(C)NC(=O)NC1c1ccc(OC)cc1OC (configuration not stated) | > 30.9 µM | > 30.9 µM | – |
| COC(=O)c1c(C)c(=O)n(C)c(=O)n1C | – | – | inactive |
| COC1/C=C/OC2(C)Oc3c(C)c(O)c4c(O)c(cc(OCC(=O)N(C)C(C)C)c4c3C2=O)NC(=O)/C(C)=C/C=C/C(C)C(O)C(C)C(O)C(C)C(OC(C)=O)C1C (configuration not stated) | > 200 µM | 38 µM | – |
| CCOC(OCC)C(CC)[Se]c1ccccc1 (configuration not stated) | > 87.1 µM | > 87.1 µM | – |
| Oc1cc(Br)cc2cc(Br)cnc12 | – | – | inactive |
| Cc1cc2c(cc1Cl)SC(C(=O)c1cccc([N+](=O)[O-])c1)=NS2(=O)=O | 120 µM | > 200 µM | – |
| CCCC/C=C(\CCCNCCCC)[Si](C)(C)C | > 479 µM | 178 µM | – |
| CCOC(=O)c1cc2cc(C)cc(C(=O)c3ccc([N+](=O)[O-])cc3)c2[nH]1 | > 200 µM | > 200 µM | – |
| CCOC(=O)C(=Cc1cccc(OC)c1)C(=O)OCC | > 129 µM | 14.8 µM | – |
| CC(C)(Cc1ccccc1)N1C(=O)N1C(C)(C)Cc1ccccc1 | > 200 µM | 28.8 µM | – |
| O=C(O)CCSC(=O)Nc1cccc(F)c1 | – | – | inactive |
| CCCCCC=C(c1cc(Br)cc(C(=O)OC)c1OC)c1cc(Br)cc(C(=O)OC)c1OC | 42.7 µM | 43.7 µM | – |
| C=C(C)/C=C/C(O)[C@](C)(O)[C@H]1[C@H](O)C[C@@]2(C)[C@@H]3CCc4c(cc(OC5OC(CO)C(O)C(O)C5O)c(O)c4C)C3(C)C(=O)C[C@]12C (some centres not stated) | > 200 µM | > 200 µM | – |
| Cn1c2ccccc2c2cc(-c3ccccc3)c3c(c21)C(=O)c1ccccc1C3=O | > 13.5 µM | > 13.5 µM | – |
| CCCC(=O)C(CC)/C(CCC(=O)N(Cc1ccccc1)Cc1ccccc1)=N/NC(=O)C[N+](C)(C)C (configuration not stated) | – | – | inactive |
| O=C(O)CCN(CCC(=O)O)CCN(CCC(=O)O)CCC(=O)O | > 589 µM | > 589 µM | – |
| C=C1C(=O)O[C@H]2[C@H]3O[C@@H](C[C@@H]12)[C@@]1(C)CC[C@H](O1)[C@H](C)CCC[C@H]3C | > 20 µM | 1.07 µM | – |
| COC(=O)CSSCc1ccccc1 | > 200 µM | 5.25 µM | – |
| COc1ccc(NC(=S)N/N=C\c2ccc(NC(C)=O)cc2)cc1 | – | – | inactive |
| CN(C)c1ccc(C2NCCc3c2[nH]c2ccccc32)cc1 (configuration not stated) | > 200 µM | 25.1 µM | – |
| NC1=NC(=O)C(CC(=O)c2ccc(Cl)cc2)S1 (configuration not stated) | > 200 µM | > 200 µM | – |

| SMILES | EC50 | IC50 | outcome |
| --- | --- | --- | --- |
| Cc1nc(NS(=O)(=O)c2ccc(NC(=O)c3ccccc3SC(=O)CCCC[n+]3ccccc3)cc2)oc1C | 16.6 µM | 52.5 µM | – |
| C/C=C1\C[C@@H]2C(OC)Nc3cc(O)c(OC)cc3C(=O)N2C1 (some centres not stated) | > 813 µM | 0.263 µM | – |
| Cc1cn(COCCCOCC(=O)c2ccccc2)c(=O)[nH]c1=O | 93.3 µM | > 200 µM | – |
| O=C(CCc1nc(=S)[nH][nH]1)Nc1ccccc1Cl | > 457 µM | > 457 µM | – |
| Nc1nc2c(nc(N)n2Cc2ccccc2)c(=O)[nH]1 | > 74.1 µM | > 74.1 µM | – |
| CCC12C[N+]3([O-])CCc4c([nH]c5ccccc45)C(C(=O)OC)(c4cc5c(cc4OC)N(C)C4C(O)(C(=O)OC)C(OC(C)=O)C6(CC)C=CCN7CCC54C76)CC(C3)C1O2 (configuration not stated) | – | – | inactive |
| CC1=C/C(=C2/N=C(N(C)C)SS2)C(C)=N1 | – | – | inactive |
| Nc1ccc2oc(=O)ccc2c1 | > 1260 µM | 8.91 µM | – |
| NC(CCCCNCC(N)C(=O)O)C(=O)O (configuration not stated) | > 933 µM | > 933 µM | – |
| O=C1OC(c2ccccc2)N(C(=O)c2ccccc2)C1Cc1ccc(OCc2ccccc2)cc1 (configuration not stated) | > 200 µM | 85.1 µM | – |
| C#CCOCC12C=CC(O1)C1C(=O)N(C)C(=O)C12 (configuration not stated) | > 200 µM | 74.1 µM and 182 µM | – |
| COC(=O)/C=C(/C(=O)OC)c1c(C)c(C)c2c(C)cc(C)cc(C)c1-2 | > 200 µM | 10 µM | – |
| O=C1NC2(CCCCC2)NC12CCCCC2 | > 135 µM | > 135 µM | – |
| C[C@]12CCC(=O)C=C1CC[C@@H]1[C@@H]2[C@@H](O)C[C@@]2(C)[C@H]1CC[C@]2(O)C(=O)COC(=O)CCC(=O)O | > 200 µM | 6.03 µM | – |
| C=CCN1CCC(OC(=O)C(O)(C#CC)C2CCCC2)CC1 (configuration not stated) | > 200 µM | > 200 µM | – |
| Cc1nc2ccc3c(ccc4nc(C)c(N=Nc5ccc(C(=N)N)cc5)c(O)c43)c2c(O)c1N=Nc1ccc(C(=N)N)cc1 | > 200 µM | 11 µM | – |
| C=C=C(C)C(c1ccccc1)N(C)C (configuration not stated) | > 1050 µM | > 1050 µM | – |
| CC1N(N2C(=O)CS(=O)(=O)C2C)C(=O)CS1(=O)=O (configuration not stated) | > 200 µM | > 200 µM | – |
| COC(=O)[C@H](Cc1ccccc1)NC(=O)/C(=C/C(C)C)NC(=O)[C@H](CCSC)NC=O | > 550 µM | > 100 µM | – |
| c1ccc2c(c1)C(=NCCCN1CCCCCCC1)c1cccn1-2 | > 200 µM | 47.9 µM | – |
| c1cc2cc3c(cc2o1)OC[C@H]1c2cc4c(cc2O[C@@H]31)OCO4 | > 43.7 µM | 10.5 µM | – |
| CCn1cc(C(=O)O)c(=O)c2cc(F)c(N3CCNCC3)nc21 | – | – | inactive |

| SMILES | EC50 | IC50 | outcome |
| --- | --- | --- | --- |
| C/C(=N\N=C(N)N)c1sc(-c2nc(C)c(/C(C)=N/N=C(N)N)s2)nc1C | > 126 µM | > 126 µM | – |
| CC(O)(c1ccccc1)c1nccc2ccccc12 (configuration not stated) | > 200 µM | 77.6 µM | – |
| CC(=O)NC1=NC(=O)/C(=C/c2ccccc2Cl)N1C | > 200 µM | > 200 µM | – |
| COc1ccc(CNc2nc3ccc(C(F)(F)F)cc3nc2-c2ccccc2)cc1OC | > 12 µM | > 12 µM | – |
| COc1nc(C(O)C2OC(C)(C)OCC2O)[nH]c1C#N (configuration not stated) | – | – | inactive |
| CNc1nc2cc(OC)c(OC)cc2c(=O)[nH]1 | > 200 µM | 191 µM | – |
| CC(NC(=O)c1ccccc1SC(=O)CCC[n+]1ccccc1)C(N)=O (configuration not stated) | 2.24 µM | 19.1 µM | – |
| [O-]c1c2c(nn1-c1ccc(Cl)cc1)c1ccccc1c[n+]2Cc1ccccc1 | > 5.13 µM | > 5.13 µM | – |
| Cc1ccccc1Nc1cn(CCOc2ccccc2)c(=O)n(CCOc2ccccc2)c1=O | > 200 µM | > 200 µM | – |
| C1CCCN(NC2=NCCO2)CC1 | 93.3 µM | 1000 µM | – |
| COC1=NC2=NC(OC)=NC3=C(Br)C=C(Br)C(=N1)N23 | > 9.77 µM | > 9.77 µM | – |
| CC(=O)O[C@@]12[C@@H]3O[C@@]4(O)C[C@]5(C)[C@H]6C[C@@](C(C)C)(O[C@H]5c5ccoc5)O[C@H]1[C@]6(C4)O[C@]2(O)C(C)=CC3(C)C | > 100 µM | 52.5 µM | – |
| CC(C)(C)[Si](OC1CC(n2cnc3c(N)ncnc32)OC1CO)(c1ccccc1)c1ccccc1 (configuration not stated) | > 100 µM | > 100 µM | – |
| CCOC(=O)/C(C#N)=C/c1cccc(F)c1 | > 162 µM | > 162 µM | – |
| COc1ccc(C(OCC2OC(n3cnc4c(=O)n(Cc5ccccc5[N+](=O)[O-])nnc43)C(O)C2O)(c2ccccc2)c2ccc(OC)cc2)cc1 (configuration not stated) | – | – | inactive |
| CC(C)=CCN1CC(C)Cn2c(=S)[nH]c3cccc1c32 (configuration not stated) | 1.17 µM | > 100 µM | – |
| Brc1ccc(-c2nc3sc(-c4ccc5c(c4)OCO5)nn3c2Br)cc1 | > 200 µM | > 200 µM | – |
| Cn1c2ccccc2c2nnc(-n3nc(-c4ccc(Br)cc4)cc3N)nc21 | > 200 µM | > 200 µM | – |
| O=C(O)c1c[nH]c2cc(O)ccc2c1=O | > 200 µM | > 200 µM | – |
| CC(C)C1CC=CC2[C@H]3C(C)(CC[C@]12CBr)C(Br)CC[C@@]3(C)O (some centres not stated) | – | – | inactive |
| NC(CCCCCCCCCCP(=O)(O)O)C(=O)O (configuration not stated) | > 200 µM | > 200 µM | – |
| Cc1ccc(NC(=O)C(=O)CC(=O)c2sc(Nc3c(C)cccc3C)nc2C)cc1C | > 200 µM | > 200 µM | – |

| SMILES | EC50 | IC50 | outcome |
| --- | --- | --- | --- |
| CCN(CCN1C(=O)C2CCCCC2C1=O)c1ccc(N=O)c(C)c1 (configuration not stated) | > 200 µM | 1.78 µM | – |
| COc1cc2c3c(c1)nc(C)n3C(=O)CS2 | > 200 µM | > 200 µM | – |
| NC1=NCCS1 | > 70.8 µM | > 70.8 µM and 32.4 µM | – |
| CC1=NN(C(=O)CC(=O)Nc2ccccc2C)C(=O)C1N=Nc1ccc(S(=O)(=O)c2ccc(N=NC3C(=O)N(C(=O)CC(=O)Nc4ccccc4C)N=C3C)cc2)cc1 (configuration not stated) | > 50.1 µM | > 50.1 µM | – |
| COC(=O)C1C(=O)C(C(=O)OC)C2CCC1N2C (configuration not stated) | > 200 µM | 42.7 µM | – |
| CC(=O)OCC1OC(n2c(=O)[nH]c(=O)c3sccc32)C(Br)C1OC(C)=O (configuration not stated) | > 200 µM | > 200 µM | – |
| Cc1ccc(Cl)cc1N=NC(=O)NNc1cc(Cl)ccc1C | > 200 µM | 25.1 µM | – |
| CC1(C)CC(=O)CC(=Nc2ccc([N+](=O)[O-])cc2)C1 | > 52.5 µM | > 52.5 µM | – |
| CC(C)(C)C1CCC2c3c([nH]c4ccccc34)C3C(=O)N(c4cc(Cl)ccc4Cl)C(=O)C3C2C1 (configuration not stated) | > 200 µM | 19.1 µM | – |
| CCCCC1c2c([nH]c3ccccc23)C2C(=O)N(c3ccc(OC)cc3)C(=O)C2C1CCC (configuration not stated) | > 200 µM | 3.55 µM | – |
| CCOC(=O)C1=C(C)OC(=O)[C@@]2(OC)C=C(Cl)[C@@]12C | > 200 µM | > 200 µM | – |
| O=C(NNC1=NCCN1)c1ccco1 | > 200 µM | > 200 µM | – |
| O=C(O)c1ccccc1-c1c2ccc(=O)c(I)c-2oc2c(I)c(O)ccc12 | > 316 µM | 19.1 µM | – |
| O=C(OCCN1CCCCC1)C(c1ccccc1)C1(O)CCSCC1 (configuration not stated) | > 200 µM | > 200 µM | – |
| Nc1nc(F)nc2c1ncn2CC(O)CO (configuration not stated) | > 1100 µM | 1.78 µM | – |
| CC1=NOC(C)(O)/C1=N/O (configuration not stated) | > 200 µM | 158 µM | – |
| NC(=O)/N=C1/CCC2C3CCCC2C13 | – | – | inactive |
| C[N+](C)(CCOc1ccccc1)Cc1cccs1 | > 200 µM | > 200 µM | – |
| S=c1[nH]nc(CCCCCCCCc2n[nH]c(=S)o2)o1 | – | – | inactive |
| COc1ccc(C=C2C(=O)c3ccccc3C2=O)cc1 | – | – | inactive |
| O=C(CN1CCN(c2cccc(Cl)c2)CC1)N1CCc2c([nH]c3ccccc23)C1c1cccnc1 (configuration not stated) | > 2.14 µM | > 2.14 µM | – |
| COc1ccccc1-n1c(=O)n(C)c(=O)n1C(C)(C)C | > 200 µM | > 200 µM | – |
